Reference: US20070185197A1, “Phenol derivative, medicinal composition containing the same, and medicinal use thereof” (priority 2004, published 2007)

Target: T1, human SGLT2 (Homo sapiens, UniProt P31639)
T1 construct: expressed in transfected cells
T1 sequence (P31639 1-672): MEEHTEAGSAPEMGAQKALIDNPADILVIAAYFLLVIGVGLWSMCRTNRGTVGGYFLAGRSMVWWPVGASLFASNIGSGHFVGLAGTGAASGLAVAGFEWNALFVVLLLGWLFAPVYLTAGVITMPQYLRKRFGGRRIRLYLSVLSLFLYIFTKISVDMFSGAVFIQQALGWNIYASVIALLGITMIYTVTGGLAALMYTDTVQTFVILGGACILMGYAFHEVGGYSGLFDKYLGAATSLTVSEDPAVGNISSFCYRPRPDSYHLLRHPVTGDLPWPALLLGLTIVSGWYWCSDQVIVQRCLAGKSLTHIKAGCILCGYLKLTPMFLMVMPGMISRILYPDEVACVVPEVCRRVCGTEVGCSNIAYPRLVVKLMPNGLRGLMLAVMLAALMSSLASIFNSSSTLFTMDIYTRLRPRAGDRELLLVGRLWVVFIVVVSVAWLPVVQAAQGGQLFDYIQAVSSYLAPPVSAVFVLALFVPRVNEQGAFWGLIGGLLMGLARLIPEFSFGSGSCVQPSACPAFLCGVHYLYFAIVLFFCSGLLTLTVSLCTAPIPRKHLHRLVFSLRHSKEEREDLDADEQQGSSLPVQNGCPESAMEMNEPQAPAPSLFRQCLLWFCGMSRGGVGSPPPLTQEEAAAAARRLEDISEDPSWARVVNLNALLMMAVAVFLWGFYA
Test: Assay for inhibitory effects on human SGLT2 activity (uptake of methyl-α-D-glucopyranoside in CS2-5E cells)
Format: cell-based
Conditions: inhibition of 14C-labeled α-MG uptake (1 mM), CHO-K1 cells stably expressing human SGLT2 (CS2-5E), 37° C., 1 hour
Experimental: Assay for Inhibitory Effects on Human SGLT2 Activity 1) Cloning and Construction of the Vector Expressing Human SGLT2 The cDNA library was prepared for PCR amplification by reverse transcription from total RNA deprived from human kidney (Ori gene) using oligo-dT as a primer. Using this cDNA library as a template, the DNA fragment coding 2 to 2039 bp of human SGLT2 (ACCESSION: M95549, M95299), which was reported by R. G. Wells et al., was amplified by PCR method and inserted into the multi-cloning site of pcDNA3.1 (−) (Invitrogen). The DNA sequence inserted was perfectly matched to the previously reported sequence. 2) Establishment of Cell Line Stably Expressing Human SGLT2 The expression vector of human SGLT2 was digested by Sca I into a linear DNA. The linear DNA was transfected into CHO-K1 cells by means of lipofection (Effectene Transfection Reagent: QIAGEN). Neomycin resistant cell lines were selected by culture in the medium containing G418 (1 mg/mL, LIFE TECHNOLOGIES), and then the activity against the uptake of methyl-α-D-glucopyranoside was measured by the method described below. […] Radioactivity was measured by means of micro-scintillation counter TopCount (Packard). One hundred % was set to the difference between the uptake in the control group and the basal uptake, and the uptake of methyl α-D-glucopyranoside at each drug concentration were calculated. […]

With `COc1ccc(Cc2ccccc2O[C@@H]2O[C@H](CF)[C@@H](O)[C@H](O)[C@H]2O)cc1` [Example 1, 2-(4-Methoxybenzyl)phenyl 6-deoxy-6-fluoro-β-D-glucopyranoside] the IC50 was 0.086 µM.
